“Also recorded” adds a separate entry of the source.
Tests used:
ADAM10 [1] = assay: sAPP release into medium of cultured cortical neurons (western blot); format: cell-based, mouse; conditions: Fmr1 KO cortical neurons
Method: Neuronal culture preparation and stimulation.
(§1) Western Blot. Standard methodologies were used. […] Membranes were incubated using specific antibodies. […] 5 (Molecular Dynamics).
Peptide treatment. […] P20 mice were given intraperitoneal injections of the two peptides (3 nmol/g) and fractionation performed after 24 hrs. Experiment was conducted on WT and KO littermate mice.

[2] = test system: dendritic spines of Fmr1 KO mice; assay: Morphological analysis of dendritic spines in vivo (diolistic DiI labelling); parameters: species or system mouse; conditions: 3 nmol/g i.p., 24 h, hippocampal sections, vs TAT-Ala Fmr1 KO mice
Method: Morphological analysis. Wild type and Fmr1 KO mice received an intraperitoneal injection with either TAT-Pro or TAT-Ala peptides (3 nmol/g; 14-d-old mice; 8 mice/group). After 24 h, the mice were deeply anaesthetised with an intraperitoneal injection 0.54 mg/g Avertin and then perfused with ice-cold 4% PFA in 0.1M phosphate buffer (PB; 61.2 mM Na2HPO4, 23.2 mM NaH2PO4.H20, pH 7.4). Brains were removed and sectioned in 200 μm thick transverse slices containing both cortex and hippocampus using a Vibratome (Vibratome). Slices were equilibrated in PBS at 4° C. before applying the Dil-coated particles using a diolistic gene-gun system (Bio-Rad laboratories, Italy). 15 min after application, slices were fixed with 4% PFA in 0.1M PB (2 hours) and kept in PB O/N before mounting. Images of Dil-labelled neurons in the hippocampus and cortex were acquired using Zeiss Confocal LSM510 Meta system with 63× objective and a sequential acquisition setting at 1024×1024 pixels resolution. For each image three to four 0.5 μm sections were acquired and z-projection was obtained. Morphological analysis of dendritic spines was performed using freely available ImageJ 1.42q software (Wayne Rasband National Institutes of Health, USA), and spine length, head width and neck width were measured.

ADAM10/SAP97 interaction = ADAM10/SAP97 interaction (Mus musculus, UniProt Q811D0); conditions: Marcello et al., 2007; cited from earlier work
ADAM10 [3] = assay: sAPPα levels in brain after intraperitoneal peptide injection (brain fractionation, western blot); format: in vivo, mouse; conditions: Fmr1 KO mice; single i.p. injection 3 nmol/g, 24 h; vs TAT-Ala treated Fmr1 KO mice
Method: as §1
Brain fractionation. Half brain was homogenized in STE buffer (Sucrose 0.32 M, 5 mMTris HCl pH 7.4, 1 mM EDTA, PSMF 0.1 mM, 10 μl ml^−1 Protease inhibitor cocktail (PIC, Sigma). The homogenized tissue was centrifuged at 800 g for 10 min to pull down nuclei. The resulting supernatant was then centrifuged at 55000 rpm 1 h. The supernatant (S1) was collected while the pellet was dissolved in 1% Triton STE Buffer and centrifuged at 55.000 rpm (TLX) for 1 hr. The supernatant is collected (S2) and the final pellet homogenized in SDS Laemmli buffer 1× (Triton-insoluble fraction, P1).
Peptide treatment. Specific (TAT-PRO) or control (TAT-ALA) peptides (10 μM) were added to the media of DIV14 WT and KO cultured neuron and the release of sAPP was monitored by WB after 24 h. P20 mice were given intraperitoneal injections of the two peptides (3 nmol/g) and fractionation performed after 24 hrs. Experiment was conducted on WT and KO littermate mice.

[4] = Marcello et al., 2007; cited from earlier work
mGluR-dependent LTD = assay: DHPG-induced mGluR-LTD, fEPSP recording in hippocampal slices; parameters: species or system mouse; conditions: for effect on enhanced mGluR-LTD: Fmr1 KO mice, slices 24 h after peptide treatment; for effect on the ability of DHPG to elicit LTD: WT slices/mice, compared with untreated control; for LTD of fEPSPs, % of baseline: 240 min
Method: Electrophysiology. Animals were euthanized by decapitation, and the right hippocampus was rapidly dissected out into ice-cold (4° C.) artificial cerebrospinal fluid (ACSF) and saturated with carbogen (95% O2/5% CO2). The ACSF consisted of (in mM): 124 NaCl, 4.9 KCl, 24.6 NaHCO3, 1.20 KH2PO4, 2.0 CaCl2, 2.0 MgCl2, and 10.0 glucose, pH 7.4. Transverse slices (400 μm thick) were prepared from the dorsal area of the hippocampus with a tissue chopper and were placed into a submerged-type chamber; samples were kept at 33° C. and continuously perfused with carbogen saturated ACSF at a flow-rate of 2.2 ml/min. After 90 min of incubation, one slice was arbitrarily selected, and a tungsten electrode was placed in the CA1 stratum radiatum. Field excitatory postsynaptic potentials (fEPSPs) were recorded by placing a glass electrode (filled with ACSF, 3-7 MΩ) in the stratum radiatum opposite the stimulating electrode. The time course of the field EPSP was measured as the descending slope function for all sets of experiments. After input/output curves had been established, the stimulation strength was adjusted to elicit a fEPSP-slope of 35% of the maximum and kept constant throughout the experiment. During the baseline recording, 3 single stimuli (0.1 ms pulse width; 10 s interval) were measured every 5 min. The mGluR mediated LTD was induced by a bath application of 30 μM S-DHPG [(S)-3-5-dihydroxy-phenyl glycine; Abcam Chemicals Ltd., Bristol UK] for 15 min (Tambuyzer et al., 2013). During the chemical induction, evoked responses were monitored at 1, 4, 7 and 10 min and then every 5 min until the end of the experiment. All studies were conducted with the experimenter blinded to the treatment regime.

Fmr1 KO mice = assay: Behavioral tests: open field (hyperactivity) and T-maze (working memory); format: in vivo, mouse; conditions: P24-25
Method: Behavioral tests. All behavioral experiments were performed with P24-25 male mice and blind to the genotype and treatment. We used a minimum of 9 animals per genotype and treatment. Mice were habituated to their new environment for 3 days and tests were conducted during the light phase of their activity cycle. Health and weight of the mice were recorded routinely during the whole period of testing.
Open-field exploration was tested in 50 cm×50 cm×30 cm (w×l×h) square arena illuminated by indirect light. Animals were dark adapted for 30 min and placed in the arena for 10 min each. Movements of the mice in the arena were video-tracked for 10 min and the images were transmitted to a PC equipped with ANY-maze™ Video Tracking System software (Stoelting Co., IL, USA).
Spatial working memory was evaluated in a delayed nonmatching alternation test using an elevated open T-shaped maze made of dark grey plastic. The maze was composed of three 50 cm×7 cm×4 cm (l×w×h) arms elevated 25 cm above the ground. Behavior was registered with a PC-interfaced camera and analyzed with ANY-maze™ Video Tracking System software (Stoelting Co., IL, USA). The mouse was subjected to two trials. During the exploration trial, one of the horizontal T-maze arms (novel arm) was blocked with a 10 cm high door and the mouse was placed into the start arm to explore freely the start and familiar arms for 5 min. […]

[5] = test system: group I metabotropic glutamate receptors (mGluR); conditions: DHPG 100 μM, 5 min
Method: Neuronal culture preparation and stimulation. Mouse primary cortical neurons (E15) were prepared as described (Ferrari et al., 2007). Neurons were treated with the mGluRI agonist DHPG (100 uM) for 5 min as described in Napoli et al., 2008.
Immunoprecipitation and RT-PCR. Mouse brains were lysed and the supernatant was used for the IP according to standardized protocol (Napoli et al., 2008). FMRP antibody or purified rabbit IgGs were incubated with the Protein A Sepharose beads and with brain extract or cells for 1 hr at 4° C. After incubation with the extracts RNA was extracted (Phenol/Chloroform) and precipitated in 2.5 v ethanol. First-strand synthesis was achieved using p(dN)6 and 100 U of Superscript III (Invitrogen) and PCR was performed with GoTaq (Promega), according to the manufacturer's instructions. We used specific oligonucleotides to amplify αCaMKII, App, Adam10, Adam9, Adam17, Cyp46, BC200, D2DR. When RTqPCR was used to quantify immunoprecipitated mRNA, the relative mRNA level in the immunoprecipitation samples was calculated as follows: 2^−[DCp(Ip)−DCp(IgG)]=2^−DDCp, where DCp equals Cp(IP or IgG)-Cp(Input).
Western Blot. Standard methodologies were used. 5-20 μg of total lysate or synaptoneurosomes were separated by SDS-PAGE electrophoresis and blotted on a PVDF membrane (Millipore). […] Further quantification was performed upon Coomassie staining of the membranes.

Sequence of ADAM10/SAP97 interaction (Q811D0 whole entry): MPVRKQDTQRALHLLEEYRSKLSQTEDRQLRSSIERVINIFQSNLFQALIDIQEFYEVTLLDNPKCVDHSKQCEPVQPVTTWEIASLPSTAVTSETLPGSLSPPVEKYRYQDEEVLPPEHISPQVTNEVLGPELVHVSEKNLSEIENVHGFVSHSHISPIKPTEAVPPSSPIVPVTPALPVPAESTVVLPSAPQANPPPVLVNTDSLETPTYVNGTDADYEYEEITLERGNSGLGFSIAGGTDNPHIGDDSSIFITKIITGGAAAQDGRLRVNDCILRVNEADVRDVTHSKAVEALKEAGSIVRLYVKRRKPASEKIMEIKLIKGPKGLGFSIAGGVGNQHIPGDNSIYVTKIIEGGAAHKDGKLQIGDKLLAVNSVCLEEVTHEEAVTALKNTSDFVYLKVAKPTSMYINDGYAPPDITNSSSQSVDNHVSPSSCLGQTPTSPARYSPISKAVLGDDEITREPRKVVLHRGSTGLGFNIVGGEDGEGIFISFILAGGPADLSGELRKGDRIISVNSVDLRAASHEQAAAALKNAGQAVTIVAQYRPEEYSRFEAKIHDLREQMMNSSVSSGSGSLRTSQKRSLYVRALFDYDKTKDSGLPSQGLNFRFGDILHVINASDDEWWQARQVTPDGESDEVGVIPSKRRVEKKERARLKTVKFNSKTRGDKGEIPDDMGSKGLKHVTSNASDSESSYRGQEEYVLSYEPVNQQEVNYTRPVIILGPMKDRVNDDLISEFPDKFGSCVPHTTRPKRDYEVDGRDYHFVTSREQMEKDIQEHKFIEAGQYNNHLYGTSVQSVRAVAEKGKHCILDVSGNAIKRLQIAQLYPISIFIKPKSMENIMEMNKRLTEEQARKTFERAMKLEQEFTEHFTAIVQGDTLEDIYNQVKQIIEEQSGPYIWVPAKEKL

Compound: TAT-Pro: Cell-permeable anti-ADAM10 peptide YGRKKRRQRRRPKLPPPKPLPGTLKRRRPPQP (SEQ ID NO:1): 11 aa Tat transporter sequence linked to 21 aa ADAM10 proline rich domains (Tat-Pro ADAM10 709-729 peptide)
- sAPP release in the medium (ADAM10 [1]; peptide 10 μM, 1 h, compared to TAT-Ala exposed neurons): significantly decreases sAPP release; also recorded: reduces sAPP release
- spines density [2]: decreases spines density
- spines length [2]: significantly increases
- spines width [2]: significantly increases
- ADAM10/SAP97 interaction (ADAM10/SAP97 interaction): interferes with ADAM10/SAP97 interaction
- sAPPα levels in brain (ADAM10 [3]): significant reduction of sAPPα levels
- blood-brain barrier crossing [4]: crosses the blood-brain barrier
- effect on enhanced mGluR-LTD (mGluR-dependent LTD; DHPG 30 μM, 15 min, listed as Tat-Pro): prevents mGluR-LTD
- effect on enhanced mGluR-LTD (mGluR-dependent LTD; DHPG 30 μM, 15 min, listed as Tat-Pro ADAM10^709-729): sufficient to prevent the enhanced LTD
- fEPSP after DHPG-induced LTD (% of baseline) (mGluR-dependent LTD; WT slices, 24 h after peptide treatment, DHPG 30 μM, 15 min): 65±8%
- effect on the ability of DHPG to elicit LTD (mGluR-dependent LTD; listed as Tat-Pro): does not impact LTD
- effect on the ability of DHPG to elicit LTD (mGluR-dependent LTD; listed as Tat-Pro ADAM10^709-729): no detectable effect
- behavioural deficits (open field hyperactivity, T-maze working memory) (Fmr1 KO mice): partially ameliorates the behavioural deficits

Compound: TIMP-1: tissue inhibitor of metalloproteinase-1, an inhibitor of metalloproteinases
- sAPP release in the medium (ADAM10 [1]; TIMP-1 15 nM for 4 h): significantly reduces sAPP release

Compound: N[C@H](C(=O)O)c1cc(O)cc(O)c1 [DHPG, (S)-3-5-dihydroxy-phenyl glycine]
- expression of APP ([5]; primary cortical neurons DIV14): induced an increase
- amount of App mRNA associated with FMRP ([5]; primary cortical neurons): reduced by threefold
- LTD of fEPSPs, % of baseline (mGluR-dependent LTD; Fmr1 KO mice slices, DHPG 30 μM, 15 min): 28±3%
- LTD of fEPSPs, % of baseline (mGluR-dependent LTD; WT slices, DHPG bath application 30 μM, 15 min): 53±9%
